Data as given in patent US6476047B2, “Anellated dihydropyridines for the treatment of chronic pain” (Boehringer Ingelheim Pharma KG, priority 2000, dated 2002).
Where a name gives a salt, the structure may show the parent alone.

What was measured:
[1] = molecular target: T1, N-type calcium channel in HEK-293-N26 cells (Homo sapiens, UniProt Q00975); test: Test B: Patch-clamp tests, N-type calcium channel blockade; assay type: cell-based
T1 construct: expressed in transfected cells; host or cells: HEK-293 (clone HEK-293-N26)
From the text: (§1) The concentration of the half-maximum inhibition (IC50-values) for the selected substances is in the submicro- to micromolar range. Independently of this optical method of measurement, the inhibitory effect on the N-type calcium channels was confirmed independently, by an electrophysiological method, using the patch-clamp technique on the same type of cells (Test B).
Test B: Patch-clamp Tests
N-type calcium channel blockade in HEK-293-N26 cells

[2] = molecular target: T2, N-type calcium channels in HEK-293 cell (Homo sapiens, UniProt Q00975); test: Test A: Calcium imaging, inhibition of N-type calcium channels (FLUO-3, 80 mM K+ depolarisation); assay type: cell-based; conditions: FLUO-3 charged recombinant HEK-293 cells, potassium depolarisation (80 mM K+)
T2 construct: expressed in transfected cells; host or cells: HEK-293 (clone HEK-293-N26)
From the text: as §1
Inhibition of N-type calcium channels in HEK-293 cell

rats [3] = test: Test C: Formalin paw test; assay type: in vivo; conditions: po, rat, p.o., read-out: ED50 values Test C, inhibition of flinching
Experimental: Formalin Paw Test (Test C)
Male rats (Chbb: THOM) weighing 250-300 grams are used. 20 μl of a 2% formaldehyde solution is injected into the plantar region of the right hind paw. Immediately afterwards, the number of flinches (spasms of the affected hind paw) and the time spent licking the affected paw are recorded. After 5 minutes in each case the values are collated into epochs. Time-activity curves for flinches and licking are plotted from the epoch values. Typically, two phases of the formalin activity (flinches, licking) are observed. A first phase of 0-10 minutes and a second phase of 10-60 minutes. Between the two phases the number of flinches and the duration of licking fall towards 0 (interphase). The areas under the curve for the first phase and for the second phase are determined from the timeactivity curves. Usually 5 animals are used in each case for the control, placebo and dose of active substance. The results of the doses of active substance are compared with those of the control and ED50 values are calculated. ED50 is the dose at which the control values are inhibited by 50%.
Test C: Formalin-paw Test (Rat)
Inhibition of flinching (ED50 values in mg/kg; p.o.)

rats [4] = test: Test D: Chronic Constriction Injury (CCI, Bennett model), mechanohyperalgesia; assay type: in vivo; conditions: po, rat
From the text: Chronic Constriction Injury (CCI, Bennett Model) (Test D)
The principle of the method is producing hyperalgesia and allodynia in the plantar region (the sole of the hind paw). Sprague-Dawley rats (Harlan) weighing 250-350 grams are used.
Under anaesthetic, four loose ligatures are placed on the sciatic nerve of the left hind paw at intervals of 2.5 mm in such a way that the perinerval circulation is affected but not prevented. This leads to extravasation and oedema, resulting in neuropathy of the nerves which innervate the planter region. The right hind paw is treated in the same way without the ligatures. Control tests for allodynia and/or hyperalgesia are carried out without the administration of any substance before and 8-10 days after the operation. Then substance tests are carried out at intervals of 2-3 days. The effects of the substance on the various parameters and ED50 values are calculated (=doses which inhibit by 50% the allodynic or hyperalgesic effects of the stimulation).
Mechano-hyperalgesia (Pin Prick)
The animals are placed in cages with a wire mesh base. Using a blunt needle (e.g. a large safety pin) the skin of the sole of the paw (Plantar-region) is touched so that an indentation is only just produced. Similarly, the sole of the paw is pinched gently with forceps. […] The number and duration of positive reactions of the operated and control paws are measured. […]

T1 sequence (Q00975 whole entry): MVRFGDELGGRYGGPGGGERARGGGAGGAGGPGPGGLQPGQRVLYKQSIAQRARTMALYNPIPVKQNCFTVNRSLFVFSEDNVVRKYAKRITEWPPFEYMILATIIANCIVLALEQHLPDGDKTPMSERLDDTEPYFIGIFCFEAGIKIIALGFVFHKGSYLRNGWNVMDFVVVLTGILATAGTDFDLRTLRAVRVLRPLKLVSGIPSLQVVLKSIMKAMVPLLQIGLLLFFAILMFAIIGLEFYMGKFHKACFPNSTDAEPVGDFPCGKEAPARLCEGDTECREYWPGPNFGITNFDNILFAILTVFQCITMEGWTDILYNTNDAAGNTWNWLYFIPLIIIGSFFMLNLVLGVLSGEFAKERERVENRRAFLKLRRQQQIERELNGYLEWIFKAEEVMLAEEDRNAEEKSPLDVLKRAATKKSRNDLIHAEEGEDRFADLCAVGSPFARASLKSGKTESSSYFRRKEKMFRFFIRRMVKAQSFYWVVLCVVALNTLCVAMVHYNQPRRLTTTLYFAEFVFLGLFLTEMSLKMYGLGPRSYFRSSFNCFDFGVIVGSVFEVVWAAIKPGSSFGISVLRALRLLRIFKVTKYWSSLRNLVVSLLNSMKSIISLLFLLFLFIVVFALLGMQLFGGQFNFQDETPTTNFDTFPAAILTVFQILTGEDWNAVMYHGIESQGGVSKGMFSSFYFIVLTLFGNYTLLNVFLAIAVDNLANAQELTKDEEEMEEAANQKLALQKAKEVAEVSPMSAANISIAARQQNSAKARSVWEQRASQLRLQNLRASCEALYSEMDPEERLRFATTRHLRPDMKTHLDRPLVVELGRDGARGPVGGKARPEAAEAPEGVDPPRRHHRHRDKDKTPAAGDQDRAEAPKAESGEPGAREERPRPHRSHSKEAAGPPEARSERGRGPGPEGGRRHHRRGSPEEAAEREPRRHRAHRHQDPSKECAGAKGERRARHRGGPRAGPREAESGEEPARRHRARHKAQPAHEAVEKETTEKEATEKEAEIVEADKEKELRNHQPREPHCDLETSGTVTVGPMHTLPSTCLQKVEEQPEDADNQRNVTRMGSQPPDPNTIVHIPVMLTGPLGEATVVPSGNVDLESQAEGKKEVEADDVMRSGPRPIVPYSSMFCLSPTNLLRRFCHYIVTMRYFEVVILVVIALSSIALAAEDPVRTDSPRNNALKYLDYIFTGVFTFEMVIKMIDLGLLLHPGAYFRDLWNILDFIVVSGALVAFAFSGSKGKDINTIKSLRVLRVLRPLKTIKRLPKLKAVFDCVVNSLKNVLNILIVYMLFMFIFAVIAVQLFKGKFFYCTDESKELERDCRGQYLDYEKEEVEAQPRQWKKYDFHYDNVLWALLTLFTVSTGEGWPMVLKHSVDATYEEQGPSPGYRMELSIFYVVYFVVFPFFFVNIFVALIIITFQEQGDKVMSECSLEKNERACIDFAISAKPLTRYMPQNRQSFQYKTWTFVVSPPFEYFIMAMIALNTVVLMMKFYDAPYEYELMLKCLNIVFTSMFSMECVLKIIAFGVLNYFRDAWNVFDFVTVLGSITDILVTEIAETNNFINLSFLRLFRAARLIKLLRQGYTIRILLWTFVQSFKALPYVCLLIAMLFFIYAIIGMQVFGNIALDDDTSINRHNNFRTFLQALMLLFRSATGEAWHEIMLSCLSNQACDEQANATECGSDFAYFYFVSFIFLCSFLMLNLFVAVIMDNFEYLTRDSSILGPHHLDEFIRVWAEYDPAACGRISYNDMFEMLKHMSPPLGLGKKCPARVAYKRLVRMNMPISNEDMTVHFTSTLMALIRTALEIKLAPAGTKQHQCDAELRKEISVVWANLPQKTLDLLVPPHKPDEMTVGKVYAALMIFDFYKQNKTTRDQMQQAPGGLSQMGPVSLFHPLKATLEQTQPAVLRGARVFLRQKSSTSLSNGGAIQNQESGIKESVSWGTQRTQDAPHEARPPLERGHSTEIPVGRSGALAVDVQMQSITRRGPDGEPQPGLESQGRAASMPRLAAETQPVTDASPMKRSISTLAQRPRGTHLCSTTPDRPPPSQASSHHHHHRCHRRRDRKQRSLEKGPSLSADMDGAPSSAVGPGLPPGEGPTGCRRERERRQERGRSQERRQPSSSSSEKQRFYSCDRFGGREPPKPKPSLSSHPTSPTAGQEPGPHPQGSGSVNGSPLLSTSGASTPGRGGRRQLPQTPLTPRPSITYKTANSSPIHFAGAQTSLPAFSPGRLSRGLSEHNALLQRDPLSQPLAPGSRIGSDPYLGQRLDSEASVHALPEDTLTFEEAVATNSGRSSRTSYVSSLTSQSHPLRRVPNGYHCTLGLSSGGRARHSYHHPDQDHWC
T1 sequence (P54289 25-956 partner limits assumed): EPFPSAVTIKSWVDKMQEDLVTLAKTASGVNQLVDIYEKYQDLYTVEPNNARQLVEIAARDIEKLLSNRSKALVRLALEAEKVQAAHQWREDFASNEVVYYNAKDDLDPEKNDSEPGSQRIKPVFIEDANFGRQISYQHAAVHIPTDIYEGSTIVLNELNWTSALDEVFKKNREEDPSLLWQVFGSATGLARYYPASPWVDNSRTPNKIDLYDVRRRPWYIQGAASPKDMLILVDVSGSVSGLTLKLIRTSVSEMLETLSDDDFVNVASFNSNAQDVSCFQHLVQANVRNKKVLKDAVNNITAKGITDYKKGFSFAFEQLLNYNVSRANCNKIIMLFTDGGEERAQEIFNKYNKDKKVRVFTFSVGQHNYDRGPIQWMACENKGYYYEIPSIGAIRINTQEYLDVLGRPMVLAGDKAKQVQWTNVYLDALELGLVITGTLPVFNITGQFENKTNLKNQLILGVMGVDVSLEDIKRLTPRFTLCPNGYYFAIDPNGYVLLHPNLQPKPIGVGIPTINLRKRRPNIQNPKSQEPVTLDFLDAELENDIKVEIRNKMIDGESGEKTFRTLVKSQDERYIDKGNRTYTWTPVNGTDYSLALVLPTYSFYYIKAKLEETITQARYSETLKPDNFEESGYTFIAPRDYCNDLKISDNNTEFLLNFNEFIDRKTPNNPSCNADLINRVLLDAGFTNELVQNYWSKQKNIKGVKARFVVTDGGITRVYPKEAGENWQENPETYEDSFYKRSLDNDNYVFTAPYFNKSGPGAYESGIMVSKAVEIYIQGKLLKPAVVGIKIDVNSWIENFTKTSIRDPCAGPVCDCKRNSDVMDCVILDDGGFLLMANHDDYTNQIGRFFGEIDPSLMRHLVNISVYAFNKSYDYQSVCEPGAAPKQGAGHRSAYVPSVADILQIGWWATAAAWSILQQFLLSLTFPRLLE
T1 sequence (P54289 957-1103 partner limits assumed): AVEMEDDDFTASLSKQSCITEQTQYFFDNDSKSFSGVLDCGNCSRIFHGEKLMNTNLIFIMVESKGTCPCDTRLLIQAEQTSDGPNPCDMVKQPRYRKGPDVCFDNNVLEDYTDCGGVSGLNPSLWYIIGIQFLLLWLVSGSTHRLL
T1 sequence (P54284 whole entry partner): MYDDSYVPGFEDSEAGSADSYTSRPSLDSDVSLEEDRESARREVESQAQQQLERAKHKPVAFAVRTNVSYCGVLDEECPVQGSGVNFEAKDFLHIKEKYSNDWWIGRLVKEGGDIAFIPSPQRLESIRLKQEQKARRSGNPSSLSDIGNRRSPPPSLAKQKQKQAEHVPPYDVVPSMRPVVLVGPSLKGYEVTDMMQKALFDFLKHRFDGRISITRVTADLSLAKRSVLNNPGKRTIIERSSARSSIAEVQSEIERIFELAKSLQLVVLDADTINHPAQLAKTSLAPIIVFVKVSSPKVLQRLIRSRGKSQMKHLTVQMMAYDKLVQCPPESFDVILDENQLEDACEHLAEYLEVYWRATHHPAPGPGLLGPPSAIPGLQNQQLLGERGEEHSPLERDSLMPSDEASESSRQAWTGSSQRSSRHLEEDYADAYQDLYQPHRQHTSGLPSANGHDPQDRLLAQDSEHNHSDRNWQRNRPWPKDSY
T2 sequence (Q00975 whole entry): as the sequence (Q00975 whole entry) above
T2 sequence (P54289 25-956 partner limits assumed): as the sequence (P54289 25-956 partner limits assumed) above
T2 sequence (P54289 957-1103 partner limits assumed): as the sequence (P54289 957-1103 partner limits assumed) above
T2 sequence (P54284 whole entry partner): as the sequence (P54284 whole entry partner) above

| SMILES | melting point [°C] | IC50 [1] [nM] | IC50 [2] [nM] | other results |
| --- | --- | --- | --- | --- |
| COc1cc2c(c(OC)c1OC)CCN=C2c1ccc(Oc2ccccc2)cc1 (as salt: salt) [Example 3] | 173 to 175 |  |  |  |
| FC(F)(F)c1ccc(Oc2ccc(C3=NCCc4ccccc43)cc2)cc1 (as salt: salt) [Example 17] | 234 to 235 |  |  |  |
| COc1ccc2c(c1)C(C)(C)CN=C2c1ccccc1Oc1cc(C(F)(F)F)cc(C(F)(F)F)c1 (as salt: salt) [Example 12] | 122 to 123 |  |  |  |
| COc1cc2c(cc1OC)C(c1ccc(Oc3ccccc3)cc1)=NCC2 (as salt: salt) [Example 1] | 209 to 210 |  |  |  |
| FC(F)(F)c1ccc(Oc2ccc(C3=NCCc4ccccc43)cc2)cc1 [Example 17] |  | 8200 |  |  |
| COc1cc2c(cc1OC)C(C)(C)CN=C2c1cccc(Oc2cc(C(F)(F)F)cc(C(F)(F)F)c2)c1 (as salt: salt) [Example 14] | 210 to 211 |  |  |  |
| COc1cc2c(cc1OC)C(C)(C)CN=C2c1ccc(Oc2ccccc2)cc1 [Example 4] | 141 to 142 |  | 1830 |  |
| COc1cc2c(cc1OC)C(C)(C)CN=C2c1cccc(Oc2ccccc2)c1 [Example 15] |  |  | 1620 |  |
| CC1(C)CN=C(c2ccc(Oc3cc(C(F)(F)F)cc(C(F)(F)F)c3)cc2)c2ccccc21 [Example 16] |  | 1220 |  |  |
| COc1cc2c(cc1OC)C(C)(C)CN=C2c1ccc(Oc2cc(C(F)(F)F)cc(C(F)(F)F)c2)cc1 [Example 7] |  | 1000 | 1260 |  |
| COc1cc2c(cc1OC)C(c1ccc(Oc3ccccc3)cc1)=NCC2 [Example 1] |  | 1800 | 1860 | ED50 (rats [3]): 10 mg/kg |
| COc1cc2c(cc1OC)C(c1ccc(Oc3ccc(C(F)(F)F)cc3)cc1)=NCC2 (as salt: salt) [Example 6] | 218 |  |  |  |
| COc1ccc2c(c1)C(C)(C)CN=C2c1ccccc1Oc1cc(C(F)(F)F)cc(C(F)(F)F)c1 [Example 12] |  | 1600 | 5540 |  |
| CCCCCCOc1ccc(C2=NCCc3cc(OC)c(OC)cc32)cc1 (as salt: salt) [Example 2] | 172 |  |  |  |
| COc1cc2c(cc1OC)C(c1ccc(Oc3cc(C(F)(F)F)cc(C(F)(F)F)c3)cc1)=NCC2 [Example 10] |  |  | 1950 |  |
| COc1cc2c(cc1OC)C(C)(C)CN=C2c1ccccc1Oc1cc(C(F)(F)F)cc(C(F)(F)F)c1 [Example 8] |  | 1700 | 3160 |  |

| SMILES | melting point [°C] | IC50 [1] [nM] | IC50 [2] [nM] | other results |
| --- | --- | --- | --- | --- |
| CCCCCCOc1ccc(C2=NCC(C)(C)c3ccccc32)cc1 (as salt: salt) [Example 11] | 186 to 187 |  |  |  |
| COc1cc2c(cc1OC)C(c1ccc(Oc3cc(C(F)(F)F)cc(C(F)(F)F)c3)cc1)=NCC2 (as salt: salt) [Example 10] | 215 |  |  |  |
| CC1(C)CN=C(c2ccccc2Oc2cc(C(F)(F)F)cc(C(F)(F)F)c2)c2ccccc21 (as salt: hydrochloride) [Example 9, 3,4-dihydro-4,4-dimethyl-1-[2-(3,5-ditrifluoromethyl)phenoxy]phenyl-isoquinoline hydrochloride] | 211 to 212 |  |  |  |
| COc1cc2c(cc1OC)C(C)(C)CN=C2c1ccc(Oc2ccc(C(F)(F)F)cc2)cc1 [Example 5] |  | 1330 | 820 | ED50 (rats [3]): 15 mg/kg; ED50 (rats [4]): 10 mg/kg |
| COc1cc2c(cc1OC)C(c1ccc(Oc3ccc(C(F)(F)F)cc3)cc1)=NCC2 [Example 6] |  | 1120 | 940 |  |
| CCCCCCOc1ccc(C2=NCCc3cc(OC)c(OC)cc32)cc1 [Example 2] |  | 1090 | 1200 |  |
| COc1cc2c(cc1OC)C(C)(C)CN=C2c1cccc(Oc2cc(C(F)(F)F)cc(C(F)(F)F)c2)c1 [Example 14] |  |  | 1610 |  |
| COc1cc2c(cc1OC)C(C)(C)CN=C2c1cccc(Oc2ccccc2)c1 (as salt: salt) [Example 15] | 181 |  |  |  |
| COc1cc2c(cc1OC)C(C)(C)CN=C2c1ccc(Oc2cc(C(F)(F)F)cc(C(F)(F)F)c2)cc1 (as salt: salt) [Example 7] | 197 |  |  |  |
| COc1cc2c(cc1OC)C(C)(C)CN=C2c1ccccc1Oc1cc(C(F)(F)F)cc(C(F)(F)F)c1 (as salt: salt) [Example 8] | 172 to 173 |  |  |  |
| CC1(C)CN=C(c2ccccc2Oc2cc(C(F)(F)F)cc(C(F)(F)F)c2)c2ccccc21 [Example 9, 3,4-dihydro-4,4-dimethyl-1-[2-(3,5-ditrifluoromethyl)phenoxy]phenyl-isoquinoline hydrochloride] |  | 260 | 3980 | ED50 (rats [3]): 10 mg/kg |
| CC1(C)CN=C(c2ccc(Oc3cc(C(F)(F)F)cc(C(F)(F)F)c3)cc2)c2ccccc21 (as salt: salt) [Example 16] | 217 to 218 |  |  |  |
| COc1cc2c(cc1OC)C(C)(C)CN=C2c1ccc(Oc2ccc(C(F)(F)F)cc2)cc1 (as salt: salt) [Example 5] | 195 to 198 |  |  |  |
| CCCCCCOc1ccc(C2=NCC(C)(C)c3ccccc32)cc1 [Example 11] |  |  | 3260 |  |
| COc1cc2c(c(OC)c1OC)CCN=C2c1ccc(Oc2ccccc2)cc1 [Example 3] |  |  | 1940 |  |
